Laboratory results from US20240228659A1, “NEW METHOD TO IMPROVE NK CELLS CYTOTOXICITY” (INSERM (INSTITUT NATIONAL DE LA SANTÉ ET DE LA RECHERCHE …, priority 2021, published 2024).

Legend:
Assay type in all cases: in vivo, mouse
CD45+NKp46+CD3− NK cells = assay: tumor NK cell infiltration, flow cytometry; settings: FIG. 3B; PBS control 0.88±0.2%
Text: FIG. 3. 13-cis-Retinoic acid combined with mAb 8B6 increases PD-1+NK cell tumor infiltration. (A) Dot plots histograms showing the gating strategy used for flow cytometric identification of CD45+NKP46+CD3− NK cells in tumor cells. (B) Fold increase of total count of NK cells in tumor cells were achieved by flow cytometry of cells gated, as indicated. […] (C) Percentage of PD-1+NK cells in tumor cells from the indicated group.
Liver metastasis were dissociated with the mouse tumor dissociation kit and the gentle MACS dissociator (Miltenyi) according to the manufacturer's instructions. Single cell suspensions were obtained by passing through a 70 μm pore-size cell MACS SmartStrainer (Miltenyi). […]
(§1) For flow cytometry analysis, cells were first incubated with a mAb specific for mouse CD16/CD32 to prevent nonspecific binding of primary antibodies against FcγR, and then, were labeled with specific conjugated mAbs. […] Quantification of total cell numbers by flow cytometry was performed done using fluorescent beads (C36950, Thermo Fisher, Waltham, MA, USA). Flow cytometric analysis were performed using an BD FACSCanto II (BD Bioscience) and data were analyzed using FlowJo software (Flowjo LLC, Oregon, OR, USA). The fold increase of tumor NK cell infiltration was calculated by dividing the number of NK cell infiltrated of each condition by the mean of the number of NK cell.

PD-L1 = PD-L1 tumor cell surface expression, flow cytometry of dissociated liver metastasis; settings: FIG. 2B; residual liver metastasis; untreated mice 31.3±7.19%
Protocol: FIG. 2. Effect of retinoic acid alone or in combination with 8B6 therapy on O-acetyl-GD2 and PD-L1 expression in vivo. Tumor cells harvested from the indicated group were stained with either OAcGD2-specific mAb (A) or PD-L1-specific mAb (B). (A) Flow cytometry analysis was performed with single cell suspension obtained from the liver metastasis harvested from mice in FIG. 1 to assess the OAcGD2 expression, as indicated. […] The level of OAcGD2 expression remains stable after treatments (ns, not significant; p>0.5). (B) Single cell suspension from (A) were also tested for PD-L1 tumor cell surface expression, as indicated. The left panel indicates the percentage of PD-L1 positive tumor cells. […]
as §1

NXS2 cells = assay: murine NXS2 neuroblastoma experimental liver metastasis model in A/J mice; settings: FIG. 1B; 8 mice/group; day 27 after i.v. NXS2 inoculation; 8B6 25 μg i.v. twice weekly x3 weeks; 13-cis-RA 10 mg/kg per os
Protocol: FIG. 1. 13-cis-Retinoic acid enhances anti-neuroblastoma activity of anti-O-acetylated GD2 ganglioside in vivo. (A) Mice (8 animal/group) were inoculated with 2.5×10^5 NXS2 cells by i.v. injections on day 0. Antibody 8B6 treatment was performed on days 3, 7, 10, 14, 17, and 21 (cumulative dose=150 μg). 13-cis-retinoic acid treatment was given at 10 mg/kg, per os, five times weekly, day 17 to 21. Mice were euthanized 27 days post-tumor cell inoculation. (B) Anti-tumor efficacy was evaluated by determining the number of liver metastasis. Mean liver metastasis number±SEM of each treatment group, as depicted (** p<0.01; Mann-Whitney test). (C) The mice body weight was recorded for each treatment group, as indicated. Mean weight (mean±SEM, n=8) of mice on day 0 was defined as 100% weight. Weight in each group remained stable for the period of the treatment.
FIG. 4. […] (B) Anti-tumor efficacy was evaluated by determining the liver metastasis on fresh specimen. […] (C) The mice body weight was recorded for each treatment group, as indicated. […]
The anti-neuroblastoma efficacy of mAb 8B6 and chemotherapeutic treatments was determined in the murine NXS2 neuroblastoma experimental liver metastasis model in A/J mice, previously described (28). […] Mice were euthanized on day 27 post-tumor challenge, and anti-tumor efficacy was evaluated by determining the number of liver metastasis.

Structure (SMILES): CC1=C(/C=C/C(C)=C/C=C/C(C)=C\C(=O)O)C(C)(C)CCC1 [13-cis-RA, 13-cis-retinoic acid]
- intratumoral CD45+NKp46+CD3− NK cells (CD45+NKp46+CD3− NK cells): 2.49±0.29%
- percentage of PD-L1+ tumor cells (PD-L1): 39.45±9.76%
- number of liver metastasis (mean±SEM) (NXS2 cells): 14.40±0.98
